# Laboratory results published in patent US11649253B2, “Terbium and dysprosium complexes with optimised antenna, used as luminescent markers” (ECOLE NORMALE SUPERIEURE DE LYON, priority 2017, dated 2023).
# Where “and” joins values, the source holds several entries; their conditions need not be identical. Equal entries are not always repeated.
# Tests used:
# [1] = Photophysical properties of the complexes measured in methanol; type: physicochemical; conditions: for λ max: absorption; for B at λ max: brightness at λ max; for ε: molar extinction coefficient; for Φ: quantum yield
# Protocol: (§1) The NMR (^1H, ^13C) spectra were recorded on a Bruker Avance device at a frequency of 300 MHz or 500.10 MHz, and 75 MHz or 125.75 MHz, for ^1H and ^13C respectively. Chemical shifts (δ) are expressed in parts per million (ppm) with respect to […] used as an internal standard and using the solvents indicated. The coupling constants (J) are expressed in Hz and the following notations are used: s (singlet), br (broad), d (doublet), t (triplet), dd (doublet of doublets), m (multiplet). The high-resolution mass spectra were recorded at the Lyon Common Mass Spectrometry Centre (Claude Bernard Lyon University, Lyon, France) on a MicroTOFQII instrument equipped with a positive ESI source. […] Purifications were carried out by chromatographic column on silica gel (silica gel 0.035-0.070 mm, 60 A). The solvents used for the reactions were purchased from Aldrich or Acros Organics as dry or extra dry solvents and stored on 3 Å molecular sieves and the reagents used were purchased from Aldrich, Acros Organics or Alfa Aesar. The UV/Vis absorption spectra were recorded on a JASCO V670 spectrometer; the emission spectra on a JOBIN-YVON fluorolog 3 spectrofluorimeter. Retention times were performed on an Agilent Technologies 1260 device equipped with a Waters XBridge RP-C18 column ([…], 4.6×100 mm). The chromatographic system used is 0.25 M ammonium formate-MeCN (v/v) as eluents: isocratic 15% MeCN (2 min), linear gradient 15 to 100% MeCN (16 min), isocratic 100% MeCN (4 min), at a rate of 1 mL/min, UV detection at 210 and 252 nm. Cellular imaging tests were performed using a solution concentrated in complex in DMSO to obtain a final complex concentration in the order of […] in cellular medium (PBS) with <1% DMSO. The T24 cells are prefixed to the PFA. The biphotonic absorption spectra were performed with a confocal laser scanning microscope LSM710 NLO (Carl Zeiss).
# The properties of complexes Ia.1-Ia.6 and 8 were evaluated in methanol (Table 1) and water (Table 2). These properties were compared to those of complex 9, described in the document, Dalton Trans.
# [2] = Photophysical properties of the complexes measured in water; type: physicochemical; conditions: for λ max: absorption; for B at λ max: brightness at λ max; for ε: molar extinction coefficient
# Protocol: as §1
# The properties of complexes Ia.1-Ia.6 and 8 were evaluated in methanol (Table 1) and water (Table 2). These properties were compared to those of complex 9, described in the document, Dalton Trans. 2015, 44, 4918, and of the following structure:
# The spectroscopic properties of complexes Ia.2 and Ia.4 are stored in water (Table 2).
structure (smiles),measurement,setting,value
"COc1ccc(-c2cc(CN3CCN(Cc4cc(-c5ccc(OC)cc5)cc(C(=O)[O-])n4)CCN(Cc4cc(-c5ccc(OC)cc5)cc(C(=O)[O-])n4)CC3)nc(C(=O)[O-])c2)cc1.[Tb+3] [complex 9, reference compound]",λ max,[1]; methanol,308 nm
same,B at λ max,[1]; methanol,3900 L/mol/cm
same,ε,[1]; methanol,33000 L/mol/cm
same,Φ,[1]; methanol,12%
COCCOCCOCCOc1cc(C)c(-c2cc(CN3CCN(Cc4cc(-c5c(C)cc(OCCOCCOCCOC)cc5C)cc(C(=O)[O-])n4)CCN(Cc4cc(-c5c(C)cc(OCCOCCOCCOC)cc5C)cc(C(=O)[O-])n4)CC3)nc(C(=O)[O-])c2)c(C)c1.[Tb+3] [Ia.4],decrease of the molar extinction coefficient on introduction of a second methyl group,[1]; Ia.4 compared with its counterpart Ia.2,more than 50%
same,λ max,[1]; methanol,302 nm and 274 nm
same,B at 330 nm,"[1]; brightness at 330 nm, methanol",3400 L/mol/cm
same,B at λ max,[1]; methanol,8500 L/mol/cm and 12000 L/mol/cm
same,T,"[1]; luminescence lifetime, methanol",1.59 ms
same,ε,[1]; methanol,13000 L/mol/cm and 19000 L/mol/cm
same,Φ,[1]; methanol,65%
same,λ max,[2]; absorption band at 275 nm,275 nm
same,λ max,[2]; absorption band at 300 nm,300 nm
same,B at 330 nm,[2]; brightness at 330 nm,2500 L/mol/cm
same,B at λ max,[2]; absorption band at 275 nm,14000 L/mol/cm
same,B at λ max,[2]; absorption band at 300 nm,7800 L/mol/cm
same,T,[2]; luminescence lifetime,1.46 ms
same,ε,[2]; absorption band at 275 nm,21000 L/mol/cm
same,ε,[2]; absorption band at 300 nm,11800 L/mol/cm
same,Φ,[2]; quantum yield,66%
